Results published in US9283208B2, “Medicaments and methods for treating cancer” (NIIKI PHARMA INC., priority 2011, dated 2016).
Marks after values point to notes of the source that are not given here.

Legend:
certain types of cancer = details: See U.S. Pat. No. 7,338,946; cited from earlier work
[1] = test system: patients with advanced solid tumors refractory to treatment; assay: Infusional fever with or without steroid premedication (US trial); type: in vivo, human
Procedure: (§1) Thereafter, in the US trial, in some patients, premedication of decadron (dexamethasone) was administered, with or without 5HT3 antagonists (serotonin antagonists) like ondansetron and granisetron. The decadron was given to prevent fever, at 4-10 mg IV. […] None of the patients premedicated with decadron had any incidence of infusion-related fever.

[2] = Pharmacokinetics in patients: urinary excretion of ruthenium; type: in vivo, human; details: in the 24 hours following Cycle 1 Day 1 dosing
Procedure: (§2) Pharmacokinetics: PK samples were obtained 0, 0.25, 0.5, 1, 2, 4, 6-8, 10-12, and 24 hours after the start of the infusion on Cycle 1 Day 1 as well as pre-infusion on Cycle 1 Day 8 and Cycle 2 Day 1. Plasma and urine were analyzed for total ruthenium [Ru] (free and bound). […] Peak plasma Ru levels were achieved by hour 2 (FIG. 2A). […] The estimated T½ is 91.4-112 hours.

[3] = test system: patients with advanced solid tumors refractory to treatment; assay: Phase I dose-escalation trial (UK): adverse reactions; type: in vivo, human; details: dose of 320 mg/m^2 and above
Procedure: (§3) The second trial was conducted in two centers in the United Kingdom (UK) with the test drug being administered on days 1 through 4 of each 21-day cycle to patients with advanced solid tumors refractory to treatment. The patients had been heavily pre-treated and had failed an average of 3 previous lines of chemotherapy. Dose escalation progressed from 20 to 500 mg/m^2.
as §1

[4] = test system: advanced solid tumors refractory to treatment; assay: Phase I dose-escalation trial (US): anti-tumor activity (partial response or stable disease); type: in vivo, human
From the text: (§4) Two Phase I dose-escalation clinical studies involving sodium trans-[tetrachlorobis(1H-indazole)ruthenate (III)] (“test drug”) have been conducted. The primary objective of both studies is to determine the safety, tolerability and maximal tolerated dose (MTD) of the test drug. Secondary objectives are to estimate the PK parameters, to identify any preliminary evidence of anti-tumor activity of the test drug in patients with advanced cancers, and to explore pharmacodynamic (PD) endpoints which may be of use in the further development of the test drug.
(§5) In the first trial which has been conducted in two centers in the US, the “test drug” was given intravenously once a week, i.e., on days 1, 8, and 15 of each 28-day cycle to patients with advanced solid tumors refractory to treatment. The patients had advanced solid tumors that had been heavily treated previously, had failed an average of 7 previous lines of chemotherapy, and had progressing disease at the time of entry into the trial. Standard 3+3 design with expanded cohort up to 25 patients at the maximal tolerated dose (MTD).
36 pts completed ≧one cycle of therapy and are evaluable to assess antitumor efficacy. […] All patients had PD at study entry.

[5] = test system: advanced solid tumors refractory to treatment; assay: Phase I dose-escalation trial (UK): anti-tumor effect; type: in vivo, human
From the text: as §4, §3

[6] = test system: patients with advanced solid tumors refractory to treatment; assay: Phase I dose-escalation trial (US): safety, tolerability, DLT and MTD; type: in vivo, human
From the text: as §4, §5
Major Inclusion/Exclusion Criteria: • Patients≧18 years with histologically or cytologically confirmed advanced solid tumors refractory to standard therapies • ECOG PS 0 or 1 • Adequate hematologic, hepatic and renal function • No symptomatic CNS metastases, no primary brain tumors • No evidence of ischemia, recent MI, or significant abnormality on ECG • No Peripheral neuropathy ≧Grade 2 • Minimum life expectancy ≧12 weeks
Definition of Dose Limiting Toxicity (DLT):
Toxicity severity graded according to the CTCAE (ver. 3.0); occurring during Cycle 1 and related to test drug: • Grade 4 neutropenia for ≧7 days • Febrile neutropenia • Grade 4 thrombocytopenia or Grade • ≧Grade 2 neurotoxicity • ≧Grade 2 cardiotoxicity • Grade 2 hypersensitivity reaction or infusion reaction • Any other non-hematologic Grade 3 or 4 toxicity other than nausea/vomiting or alopecia • Inability to complete the first cycle due to any toxicity thought to be related to test drug.

[7] = Pharmacokinetics in patients: plasma total ruthenium; type: in vivo, human; details: for C1D8 Hour 0 ng/mL Ru / C2D1 Hour 0 ng/mL Ru: pre-infusion trough
Procedure: as §2

[8] = 320 mg/m^2, total drug 630 mg, NET (carcinoid tumor of small intestine), 3 prior systemic therapies
[9] = 320 mg/m^2, total drug 630 mg, NET (carcinoid tumor of small intestine), 3 prior systemic therapies, listed as Sodium trans-[tetrachlorobis(1H-indazole)ruthenate (III)]
[10] = US trial, IV once a week on days 1, 8, 15 of 28-day cycle

## [Cl-].[Cl-].[Cl-].[Cl-].[Ru+3].c1ccc2[nH][nH+]cc2c1.c1ccc2[nH]ncc2c1.c1ccc2[nH]ncc2c1 [indazolium trans-[tetrachlorobis(1H-indazole)ruthenate (III)], reference compound]
Certain types of cancer
  inducing apoptosis in certain types of cancer: highly potent

## [Cl][Ru-]([Cl])([Cl])[Cl].[Na+].c1ccc2[nH]ncc2c1.c1ccc2[nH]ncc2c1 [test drug, sodium trans-[tetrachlorobis(1H-indazole)ruthenate (III)]]
[1]; 320 mg/m^2, no steroid premedication, 3 patients
  # with fever: 0
[1]; 320 mg/m^2, steroid premedication, 4 patients
  # with fever: 0
[1]; 420 mg/m^2, no steroid premedication, 3 patients, one had fever but then none after premed of additional doses
  # with fever: 2*
[1]; 420 mg/m^2, steroid premedication, 2 patients
  # with fever: 0
[1]; 500 mg/m^2, no steroid premedication, 1 patient
  # with fever: 1
[1]; 500 mg/m^2, steroid premedication, 2 patients
  # with fever: 0
[1]; 625 mg/m^2, no steroid premedication, 8 patients
  # with fever: 1
[1]; 625 mg/m^2, steroid premedication, 10 patients
  # with fever: 0
[1]; 780 mg/m^2, no steroid premedication, 3 patients
  # with fever: 1
[1]; 780 mg/m^2, steroid premedication, 6 patients
  # with fever: 0
[1]; at therapeutically effective doses
  incidence of fever or chill on intravenous infusion: higher incidence of fever or chill
[1]; patients without premedication, US trial
  infusional fever: high likelihood of infusional fever
[2]
  urinary excretion of the test drug derived ruthenium: low urinary excretion
[3]
  adverse reactions: fever and chill were seen
[4]; 320 mg/m^2, 7 patients dosed
  Patients replaced in due to PD in Cycle 1: 1
[4]; 320 mg/m^2, total drug 531 mg, NSCLC, 7 prior systemic therapies
  Duration of therapy: 16 weeks
[4]; 320 mg/m^2, total drug 618 mg, NSCLC, 4 prior systemic therapies
  Duration of therapy: 16 weeks
[4]; [8]
  Duration of therapy: 100+ weeks
  Response: PR (partial response (PR))
[4]; [9]
  Duration of therapy: over 100 weeks
  Response: tumor regression and partial response
[4]; 420 mg/m^2, 5 patients dosed
  Patients replaced in due to PD in Cycle 1: 2
[4]; 420 mg/m^2, total drug 832 mg, NET, 0 prior systemic therapies (failed 4 prior chemo- and Yttrium-embolization procedures)
  Duration of therapy: 24 weeks
[4]; 500 mg/m^2, total drug 890 mg, Unknown primary, 2 prior systemic therapies
  Duration of therapy: 22 weeks
[4]; 625 mg/m^2, total drug 1175 mg, GE Junction, 3 prior systemic therapies
  Duration of therapy: 12+ weeks
[4]; 625 mg/m^2, total drug 1190 mg, CRC, 3 prior systemic therapies
  Duration of therapy: 12 weeks
[4]; 780 mg/m^2, 9 patients dosed
  Patients replaced in due to PD in Cycle 1: 1
[4]; 780 mg/m^2, total drug 1450 mg, Sarcoma, 3 prior systemic therapies
  Duration of therapy: 16 weeks
[4]; 780 mg/m^2, total drug 1544 mg, NET, 1 prior systemic therapy
  Duration of therapy: 27+ weeks
[4]; human dose escalating clinical trial
  minimum effective dosage for general use of treating cancer: 320 mg/m^2
Certain types of cancer
  inducing apoptosis in certain types of cancer: highly potent
[5]; Patient 1, 20 mg/m^2, Esophageal
  # weeks of treatment: 2 weeks
[5]; Patient 2, 40 mg/m^2, Head & Neck
  # weeks of treatment: 4 weeks
[5]; Patient 2, 40 mg/m^2 days 1 through 4 of 21-day cycle, Head & Neck
  Anti-tumor effect (best response): Stable disease
[5]; Patient 3, 80 mg/m^2, Mesothelioma
  # weeks of treatment: 2 weeks
[5]; Patient 4, 160 mg/m^2, Cecum
  # weeks of treatment: 2 weeks
[5]; Patient 5, 320 mg/m^2, Anal
  # weeks of treatment: 1 weeks
[5]; Patient 6, 500 mg/m^2, Rectal
  # weeks of treatment: 4 weeks
[5]; Patient 6, 500 mg/m^2 days 1 through 4 of 21-day cycle, Rectal
  Anti-tumor effect (best response): Stable disease
[5]; Patient 7, 500 mg/m^2, Esophageal
  # weeks of treatment: 2 weeks
[6]; 320 mg/m^2, 7 patients dosed
  Patients w/ DLT: 1
[6]; 320 mg/m^2 on days 1, 8, 15 of 28-day cycle, carcinoid tumor patient treated over 100 weeks
  major adverse event related to the test drug: No major adverse event
[6]; 625 mg/m^2, 6 patients dosed
  Patients w/ DLT: 1
[6]; 780 mg/m^2, 9 patients dosed
  Patients w/ DLT: 3
[6]; 780 mg/m^2, patient, not premedicated with steroids
  DLT Seen at 780 mg/m^2: A person had an infusion reaction consisting of fever
[6]; 780 mg/m^2, person one
  time for Grade 2 creatinine elevation to return to baseline: within 1 week.
[6]; 780 mg/m^2, person one, following Cycle 1 Day 1 dosing, fatigue
  DLT Seen at 780 mg/m^2: Grade 1 fatigue following Cycle 1 Day 1 dosing associated
[6]; 780 mg/m^2, person one, following Cycle 1 Day 1 dosing, nausea
  DLT Seen at 780 mg/m^2: person one had Grade 2 nausea, Grade 1 vomiting,
[6]; 780 mg/m^2, person two
  time for Grade 2 creatinine elevation to return to baseline: ≤ 3 weeks.
[6]; [10]
  DLT dose: 780 mg/m^2
  maximal tolerated dose (MTD): 625 mg/m^2
[7]; 20 mg/m^2, plasma total Ru
  C1D1 Hour 24 ng/mL Ru: 1366 ng/mL Ru
  C1D8 Hour 0 ng/mL Ru: 528 ng/mL Ru
  C2D1 Hour 0 ng/mL Ru: 670 ng/mL Ru
[7]; 40 mg/m^2, plasma total Ru
  C1D1 Hour 24 ng/mL Ru: 2884 ng/mL Ru
  C1D8 Hour 0 ng/mL Ru: 1197 ng/mL Ru
  C2D1 Hour 0 ng/mL Ru: 1472 ng/mL Ru
[7]; 80 mg/m^2, plasma total Ru
  C1D1 Hour 24 ng/mL Ru: 4831 ng/mL Ru
[7]; 160 mg/m^2, plasma total Ru
  C1D1 Hour 24 ng/mL Ru: 4639 ng/mL Ru
  C1D8 Hour 0 ng/mL Ru: 4000 ng/mL Ru
  C2D1 Hour 0 ng/mL Ru: 6588 ng/mL Ru
[7]; 320 mg/m^2, plasma total Ru
  C1D1 Hour 24 ng/mL Ru: 20033 ng/mL Ru
  C1D8 Hour 0 ng/mL Ru: 7667 ng/mL Ru
  C2D1 Hour 0 ng/mL Ru: 10126 ng/mL Ru
[7]; 420 mg/m^2, plasma total Ru
  C1D1 Hour 24 ng/mL Ru: 25921 ng/mL Ru
  C1D8 Hour 0 ng/mL Ru: 9595 ng/mL Ru
  C2D1 Hour 0 ng/mL Ru: 14698 ng/mL Ru
[7]; 500 mg/m^2, plasma total Ru
  C1D1 Hour 24 ng/mL Ru: 28070 ng/mL Ru
  C1D8 Hour 0 ng/mL Ru: 11880 ng/mL Ru
  C2D1 Hour 0 ng/mL Ru: 13000 ng/mL Ru
[7]; 625 mg/m^2, plasma total Ru
  C1D1 Hour 24 ng/mL Ru: 35216 ng/mL Ru
  C1D8 Hour 0 ng/mL Ru: 12303 ng/mL Ru
  C2D1 Hour 0 ng/mL Ru: 14363 ng/mL Ru
[7]; 780 mg/m^2, plasma total Ru
  C1D1 Hour 24 ng/mL Ru: 43105 ng/mL Ru
  C1D8 Hour 0 ng/mL Ru: 17001 ng/mL Ru
  C2D1 Hour 0 ng/mL Ru: 22125 ng/mL Ru
[7]; 20 to 780 mg/m^2
  dose proportionality of Cmax and AUC0-168: good dose proportionality
[7]; after start of infusion, Cycle 1 Day 1
  time by which peak plasma Ru levels were achieved: ≤ 2 h
[7]; noted by Cycle 1 Day 8 and Cycle 2 Day 1 levels
  accumulation of Ru following dosing: There is accumulation of Ru following dosing
[7]; plasma total Ru, patients
  estimated T½: 91.4 to 112 h
